Experimental data from ChEMBL document CHEMBL5150000, “Insights on Dengue and Zika NS5 RNA-dependent RNA polymerase (RdRp) inhibitors” (Eur J Med Chem, 2021).

How the values were obtained:
[1] = Inhibition of DENV RNA-dependent RNA polymerase in hamster BHK-21 cells; format: cell-based, Dengue virus
[2] = Cytotoxicity against hamster BHK-21 cells; format: toxicity, cell-based, Mesocricetus auratus
dengue virus type 4 [3] = assay: Antiviral activity against DENV-4 infected in African green monkey Vero E6 cells; format: functional, organism-based; conditions: Vero C1008
Zika virus [4] = assay: Antiviral activity against Zika virus infected in African green monkey Vero E6 cells; format: functional, organism-based; conditions: Vero C1008
dengue virus type 3 [5] = assay: Antiviral activity against DENV-3 infected in African green monkey Vero E6 cells; format: functional, organism-based; conditions: Vero C1008
dengue virus type 1 [6] = assay: Antiviral activity against DENV-1 infected in African green monkey Vero E6 cells; format: functional, organism-based; conditions: Vero C1008
Zika virus [7] = assay: Antiviral activity against Zika virus infected in African green monkey Vero cells assessed as reduction in viral replication incubated for 24 hrs; format: functional, organism-based
dengue virus type 2 [8] = assay: Antiviral activity against DENV-2 RNA-dependent RNA polymerase infected in human Huh-7 cells assessed as reduction in viral replication by RT-PCR analysis; format: functional, organism-based
[9] = Cytotoxicity against African green monkey Vero cells; format: toxicity, cell-based; conditions: chlorocebus sabaeus
Zika virus [10] = assay: Antiviral activity against Zika virus NS5/RNA-dependent RNA polymerase; format: functional, organism-based
Dengue virus = assay: Antiviral activity against DENV NS5/RNA-dependent RNA polymerase; format: functional, organism-based
Nonstructural protein 5 [11] = target: T1, Nonstructural protein 5 (Dengue virus, UniProt V5TFZ2); assay: Inhibition of DENV-2 NS5; set-up: species or system dengue virus type 2
Hepacivirus hominis = assay: Inhibition of C-terminal his6-tagged HCV NS5/RNA-dependent RNA polymerase expressed in Escherichia coli at 100 uM incubated for 2 hrs by Microbeta counter analysis
Nonstructural protein 5 [12] = target: T1, Nonstructural protein 5; assay: Inhibition of DENV-4 NS5; set-up: species or system dengue virus type 4
[13] = Inhibition od DENV-2 RNA-dependent RNA polymerase; set-up: species or system dengue virus type 2
[14] = target: T2, DNA polymerase alpha catalytic subunit (Homo sapiens) (UniProt P09884); assay: Inhibition of human DNA polymerase alpha at 100 uM incubated for 60 mins by Microbeta counter analysis
T2 sequence (whole entry): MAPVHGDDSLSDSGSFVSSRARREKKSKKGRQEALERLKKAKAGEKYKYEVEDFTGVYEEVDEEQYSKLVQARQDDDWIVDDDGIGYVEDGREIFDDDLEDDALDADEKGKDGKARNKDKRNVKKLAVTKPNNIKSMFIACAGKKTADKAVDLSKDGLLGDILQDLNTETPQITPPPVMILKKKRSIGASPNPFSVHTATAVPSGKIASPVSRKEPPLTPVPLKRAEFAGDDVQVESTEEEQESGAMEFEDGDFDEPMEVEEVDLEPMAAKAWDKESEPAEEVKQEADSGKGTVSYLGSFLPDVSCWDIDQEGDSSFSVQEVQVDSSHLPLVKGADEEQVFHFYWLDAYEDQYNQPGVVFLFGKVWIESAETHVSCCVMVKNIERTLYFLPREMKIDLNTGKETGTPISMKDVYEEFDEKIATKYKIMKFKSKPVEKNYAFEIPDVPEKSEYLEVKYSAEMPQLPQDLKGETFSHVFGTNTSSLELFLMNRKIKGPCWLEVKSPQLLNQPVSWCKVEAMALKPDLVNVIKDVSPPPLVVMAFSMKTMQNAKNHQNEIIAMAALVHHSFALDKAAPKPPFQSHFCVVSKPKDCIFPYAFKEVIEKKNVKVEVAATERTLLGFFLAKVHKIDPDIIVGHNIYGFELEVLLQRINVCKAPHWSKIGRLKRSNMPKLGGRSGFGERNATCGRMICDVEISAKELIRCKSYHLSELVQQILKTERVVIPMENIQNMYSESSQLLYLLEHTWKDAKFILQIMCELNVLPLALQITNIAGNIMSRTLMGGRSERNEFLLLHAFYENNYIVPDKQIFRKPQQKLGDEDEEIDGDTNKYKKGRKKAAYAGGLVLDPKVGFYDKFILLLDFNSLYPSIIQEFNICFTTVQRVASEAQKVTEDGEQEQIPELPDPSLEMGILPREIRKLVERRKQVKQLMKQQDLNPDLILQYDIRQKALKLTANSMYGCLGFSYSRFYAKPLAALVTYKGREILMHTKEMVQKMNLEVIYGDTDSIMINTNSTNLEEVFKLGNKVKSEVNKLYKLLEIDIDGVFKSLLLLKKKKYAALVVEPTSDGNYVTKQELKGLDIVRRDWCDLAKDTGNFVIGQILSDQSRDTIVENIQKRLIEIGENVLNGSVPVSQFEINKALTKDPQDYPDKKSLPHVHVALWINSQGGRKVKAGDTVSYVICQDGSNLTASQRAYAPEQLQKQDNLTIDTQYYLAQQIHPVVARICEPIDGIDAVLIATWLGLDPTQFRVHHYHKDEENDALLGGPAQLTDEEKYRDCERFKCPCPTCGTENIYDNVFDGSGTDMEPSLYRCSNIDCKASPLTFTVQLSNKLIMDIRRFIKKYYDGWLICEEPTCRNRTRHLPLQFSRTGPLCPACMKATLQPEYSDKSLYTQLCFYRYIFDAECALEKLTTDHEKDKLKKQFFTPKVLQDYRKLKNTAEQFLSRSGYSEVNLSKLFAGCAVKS

[15] = Binding affinity to DENV RNA-dependent RNA polymerase assessed as dissociation constant; set-up: species or system Dengue virus
Nonstructural protein 5 [16] = target: T1, Nonstructural protein 5; assay: Inhibition of DENV NS5/RNA-dependent RNA polymerase
Vero = assay: Inhibition of DENV-2 RNA-dependent RNA polymerase in African green monkey Vero cells measured for 24 to 72 hrs relative to control; format: cell-based; conditions: dengue virus type 2, time 24-72 hrs, dose or concentration not given here
[17] = target: Nonstructural protein 5 (Dengue virus) (UniProt V5TFZ2); assay: Binding affinity to DENV-3 NS5 assessed as gibbs free energy change; conditions: dengue virus type 3
dengue virus type 4 [18] = assay: Binding affinity to DENV-4 RNA-dependent RNA polymerase assessed as change in enthalpy by ITC analysis
[19] = Binding affinity to DENV-3 RNA-dependent RNA polymerase assessed as dissociation constant incubated for 40 sec by surface plasmon resonance analysis; set-up: species or system dengue virus type 3
[20] = Inhibition of DENV-3 RNA-dependent RNA polymerase; set-up: species or system dengue virus type 3
NS5 = NS5 (Zika virus, UniProt A0A143MHK7); assay: Inhibition of Zika virus RNA-dependent RNA polymerase activity
dengue virus type 1 [21] = assay: Antiviral activity against DENV-1 RNA-dependent RNA polymerase infected in African green monkey Vero cells assessed as reduction in viral replication incubated for 2 days by qRT-PCR analysis; format: functional, organism-based; conditions: 48 h
dengue virus type 4 [22] = assay: Antiviral activity against DENV-4 RNA-dependent RNA polymerase infected in African green monkey Vero cells assessed as reduction in viral replication incubated for 2 days by qRT-PCR analysis; format: functional, organism-based; conditions: 48 h
dengue virus type 3 [23] = assay: Antiviral activity against DENV-3 RNA-dependent RNA polymerase infected in African green monkey Vero cells assessed as reduction in viral replication incubated for 2 days by qRT-PCR analysis; format: functional, organism-based; conditions: 48 h
dengue virus type 2 [24] = assay: Antiviral activity against DENV-2 RNA-dependent RNA polymerase infected in African green monkey Vero cells assessed as reduction in viral replication incubated for 2 days by qRT-PCR analysis; format: functional, organism-based; conditions: 48 h
Genome polyprotein = Genome polyprotein (dengue virus type 2, UniProt P29990); assay: Inhibition of DENV-2 DENV2 NS2B-NS3
Nonstructural protein 5 [25] = target: T1, Nonstructural protein 5; assay: Inhibition of full length His-tagged DENV-2 NS5 incubated for 1 hr; set-up: species or system dengue virus type 2

Chain of NS5 (A0A143MHK7 whole entry): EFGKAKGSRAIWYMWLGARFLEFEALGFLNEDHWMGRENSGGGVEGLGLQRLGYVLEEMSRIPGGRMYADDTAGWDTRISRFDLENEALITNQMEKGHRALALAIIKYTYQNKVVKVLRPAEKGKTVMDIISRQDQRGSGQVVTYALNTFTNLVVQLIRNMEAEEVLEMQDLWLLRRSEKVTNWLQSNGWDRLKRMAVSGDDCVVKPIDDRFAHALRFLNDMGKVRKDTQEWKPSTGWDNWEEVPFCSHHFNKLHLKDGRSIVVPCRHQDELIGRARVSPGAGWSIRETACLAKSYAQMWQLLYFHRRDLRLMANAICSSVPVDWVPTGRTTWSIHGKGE
Chain of Genome polyprotein (P29990 1346-1475 limits assumed): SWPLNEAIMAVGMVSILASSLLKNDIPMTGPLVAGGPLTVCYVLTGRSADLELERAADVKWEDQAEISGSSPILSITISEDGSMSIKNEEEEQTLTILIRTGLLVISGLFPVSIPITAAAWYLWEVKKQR
Chain of Genome polyprotein (P29990 1476-2093 limits assumed): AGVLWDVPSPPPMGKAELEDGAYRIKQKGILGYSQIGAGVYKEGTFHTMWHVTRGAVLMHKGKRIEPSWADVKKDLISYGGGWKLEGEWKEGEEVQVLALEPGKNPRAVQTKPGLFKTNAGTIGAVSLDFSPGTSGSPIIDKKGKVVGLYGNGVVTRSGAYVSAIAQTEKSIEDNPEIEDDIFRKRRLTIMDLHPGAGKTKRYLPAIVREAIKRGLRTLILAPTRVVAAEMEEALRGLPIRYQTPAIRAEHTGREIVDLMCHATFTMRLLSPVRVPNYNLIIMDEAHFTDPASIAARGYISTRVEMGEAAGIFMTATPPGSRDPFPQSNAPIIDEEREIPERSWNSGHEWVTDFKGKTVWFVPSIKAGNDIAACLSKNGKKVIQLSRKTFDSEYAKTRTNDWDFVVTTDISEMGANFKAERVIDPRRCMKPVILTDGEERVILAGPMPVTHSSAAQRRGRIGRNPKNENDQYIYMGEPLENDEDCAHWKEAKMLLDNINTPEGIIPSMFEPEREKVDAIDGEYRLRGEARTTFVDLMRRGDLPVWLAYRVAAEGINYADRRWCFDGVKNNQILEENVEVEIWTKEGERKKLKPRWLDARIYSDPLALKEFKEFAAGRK

SMILES: C#Cc1c(C#N)ncn1[C@@H]1S[C@H](CO)[C@@H](O)[C@H]1O
- IC50 [1]: 6570 nM
- CC50 [2]: > 50000 nM

SMILES: COc1ccc(-c2cc(C(=O)N[C@@H](Cc3ccc(O)cc3)C(=O)O)c3sc4ccc(OC5CCCCC5)cc4n3c2=O)cc1F
- EC50 (dengue virus type 4 [3]): 2900 nM
- EC50 (Zika virus [4]): 10700 nM
- EC50 (dengue virus type 3 [5]): 3500 nM
- EC50 (dengue virus type 1 [6]): 5100 nM

SMILES: O=C(NCCO)c1cc(-c2ccccc2)c(=O)n2c1sc1ccc(C3CCCCC3)cc12
- EC50 (Zika virus [7]): 1800 nM
- EC50 (dengue virus type 2 [8]): 1900 nM

SMILES: O[C@H]1[C@H]2c3cc4c(cc3CN3CCC(=C[C@@H]1O)[C@H]23)OCO4 [LYCORINE]
- CC50 [9]: 21000 nM
- EC50 (Zika virus [10]): 390 nM

SMILES: O=C(O)/C=C/C#CCCCCCCCC(=O)O
- CC50 [9]: > 420000 nM
- IC50 (Dengue virus): 2500 nM

SMILES: O=C(O)c1ccccc1NS(=O)(=O)c1cccc(-c2cnn(Cc3ccccc3)c2)c1
- IC50 (Nonstructural protein 5 [11]): 4600 nM
- inhibition (Hepacivirus hominis): 23%
- IC50 (Nonstructural protein 5 [12]): 5200 nM
- IC50 [13]: 700 nM
- inhibition [14]: 32%

SMILES: Cc1ccc(C2N(c3ccccc3)CC3=C(CC(C)(C)CC3=O)N2c2ccccc2)cc1 (stereo not drawn)
- Kd [15]: 900 nM

SMILES: Cc1cn([C@H]2C=C[C@@H](CO)O2)c(=O)[nH]c1=O
- inhibition (Vero): 11%

SMILES: O=C1N=C(SCC(=O)N2CCN(c3ccc(F)cc3)CC2)N=C2CCN(Cc3ccccc3)C[C@H]12
- deltaG [17]: -6.43 kcal/mol

SMILES: COc1ccc(CC(=O)O)cc1-c1cccs1
- deltaH (dengue virus type 4 [18]): -5.96 kcal/mol
- Kd [19]: 29000 nM
- IC50 (Nonstructural protein 5 [12]): 140000 nM
- IC50 [20]: 144 nM

SMILES: C#Cc1c(C(N)=O)ncn1[C@@H]1O[C@H](CO)[C@@H](O)[C@H]1O
- IC50 [1]: 270 nM
- CC50 [2]: 1240 nM

SMILES: C[C@@]1(O)[C@H](O)[C@@H](COP(=O)(O)OP(=O)(O)OP(=O)(O)O)O[C@H]1n1cnc2c(N)ncnc21
- IC50 (NS5): 5260 nM

SMILES: O=C(Nc1nc(-c2cccc3ccccc23)n[nH]1)C1=CNc2ccccc2N1
- deltaG [17]: -4.89 kcal/mol

SMILES: CCCCC#CC#CC#CCCCCCCCC(=O)O
- CC50 [9]: 30000 nM
- IC50 (Dengue virus): 2700 nM

SMILES: C[C@@]1(O)[C@H](O)[C@@H](CO)O[C@H]1n1cc(F)c2c(N)ncnc21
- EC50 (dengue virus type 1 [21]): 960 nM
- EC50 (dengue virus type 4 [22]): 870 nM
- EC50 (dengue virus type 3 [23]): 850 nM
- EC50 (dengue virus type 2 [24]): 460 nM

SMILES: O=C(N[C@@H](Cc1ccc(O)cc1)C(=O)O)c1cc(-c2ccccc2)c(=O)n2c1sc1ccc(OC3CCCCC3)cc12
- IC50 (Genome polyprotein): 9610 nM

SMILES: O=C1N/C(=N\c2nnc(-c3cccc(F)c3)s2)S/C1=C\c1cccc(F)c1
- IC50 (Nonstructural protein 5 [25]): 2300 nM

SMILES: C[C@@]1(O)[C@H](O)[C@@H](COP(=O)(O)OP(=O)(O)OP(=O)(O)O)O[C@H]1n1ccc2c(N)ncnc21
- IC50 (NS5): 8920 nM
